pIC50: −log10 of the molar value. Several values for one entry are separate records, joined by “and”; a condition that tells them apart may be missing. Equal entries are not always repeated. Where two headings read alike, the source gives them in different places.
Experiments:
[1] = test system: T-lymphoblastic leukemia cell line CEM; assay: Calcein AM cytotoxicity, CEM; type: cell-based, human
Description: (§1) One of the parameters used, as the basis for cytotoxicity assays, is the metabolic activity of viable cells. For example, a microtiter assay, which uses the Calcein AM, is now widely used to quantitate cell proliferation and cytotoxicity. For instance, this assay is used in drug screening programs and in chemosensitivity testing. Because only metabolically active cells cleave Calcein AM, these assays detect viable cells exclusively. The quantity of reduced Calcein AM corresponds to the number of vital cells in the culture.
(§2) The cells were maintained in Nunc/Corning 80 cm^2 plastic tissue culture flasks and cultured in cell culture medium (DMEM with 5 g/l glucose, 2 mM glutamine, 100 U/ml penicillin, 100 μg/ml streptomycin, 10% fetal calf serum and sodium bicarbonate).
(§3) The cell suspensions that were prepared and diluted according to the particular cell type and the expected target cell density (2.500-30.000 cells per well based on cell growth characteristics) were added by pipette (80 μl) into 96/well microtiter plates. Inoculates were allowed a pre-incubation period of 24 hours at 37° C. and 5% CO2 for stabilisation. Four-fold dilutions of the intended test concentration were added at time zero in 20 μl aliquots to the microtiter plate wells. Usually, test compound was evaluated at six 4-fold dilutions. […] All drug concentrations were examined in duplicates. Incubations of cells with the test compounds lasted for 72 hours at 37° C., in 5% CO2 atmosphere and 100% humidity. At the end of incubation period, the cells were assayed by using the Calcein AM. Ten microliters of the stock solution were pipetted into each well and incubated further for 1 hours. Fluorescence (FD) was measured with the Labsystem FIA Reader Fluoroscan Ascent (UK).

[2] = test system: breast carcinoma cell line MCF-7; assay: Calcein AM cytotoxicity, MCF7; type: cell-based, human; settings: read-out: IC 50, MCF7
Description: as §1, §2, §3

K-562 = assay: Calcein AM cytotoxicity, K-562; type: cell-based; settings: read-out: IC 50, K-562
Description: as §1, §2, §3

[3] = test system: Amaranthus caudatus cotyledon/hypocotyl explants; assay: Amaranthus bioassay, betacyanin content; type: in vivo; settings: betacyanin content at the concentration with highest activity
Description: Standard Amaranthus bioassay was performed with several modifications. The seeds of Amaranthus caudatus var. atropurpurea were surface-sterilised in 10% N-chlorobenzenesulfonamide (w/v) for 10 min and washed 5 times in deionized water. They were placed in 14 cm Petri dishes containing paper tissues saturated with deionized water. After 72 h of cultivation at 25° C. in darkness, the roots of the seedlings were cut off. The explants, consisting of two cotyledons and hypocotyls, were placed in 5 cm Petri dishes on two layers of filter paper soaked in 1 ml of incubation medium containing 10 μmol NA2HPO4-KH2PO4, pH 6.8, 5 μmol tyrosine and the cytokinin to be tested. There were 20 explants per dish. The procedure was carried out under a green safe light in a darkroom. After a 48 h of incubation at 25° C. in darkness, betacyanin was extracted by freezing the explants in 4 ml […] acetic acid. The concentration of betacyanin was determined by comparing the absorbance at 537 nm and 620 nm as follows: ΔA=[…] nm-A620 nm. From the obtained data, the concentration with highest activity was selected for each compound tested. Relative activity of the compound at this concentration was calculated (Tab. 6). […] The values shown in table 8 are means of five replicates and the entire test was repeated twice. The cytokinins to be tested were dissolved in dimethylsulfoxide (DMSO) and the solution brought up to 10^-3M with distilled water. This stock was further diluted in the respective media used for the biotest to concentrations ranging from 10^-8M to 10^-4M.

[4] = test system: tobacco callus Nicotiana tabacum L. cv. Wisconsin 38; assay: Cytokinin-dependent tobacco callus growth; type: cell-based; settings: fresh callus weight at the concentration with highest activity
Description: Cytokinin-dependent tobacco callus Nicotiana tabacum L. cv. Wisconsin 38 was maintained at 25° C. in darkness on modified Murashige-Skoog medium, containing per 1 liter: 4 μmol nicotinic acid, 2.4 μmol pyridoxine hydrochloride, 1.2 μmol thiamine, 26.6 μmol glycine, 1.37 μmol glutamine, 1.8 μmol myo-inositol, 30 g of sucrose, 8 g of agar, 5.37 μmol α-naphtylacetic acid (NAA) and 0.5 μmol benzylaminopurine (BAP). Subcultivation was carried out every three weeks. Fourteen days before the bioassay, the callus tissue was transferred to the media without 6-benzylaminopurine (BAP). Biological activity was determined from the increase in fresh callus weight after four weeks of cultivation. Five replicates were prepared for each cytokinin concentration and the entire test was repeated twice. From the obtained data, the concentration with highest activity was selected for each compound tested. Relative activity of the compound at this concentration was calculated (Tab. 6). The activity obtained for 10^−4 M 6-benzylaminopurine (BAP) was postulated as 100%. The cytokinins to be tested were dissolved in dimethylsulfoxide (DMSO) and the solution brought up to 10^−3M with distilled water. This stock was further diluted in the respective media used for the biotest to concentrations ranging from 10^−8M to 10^−4M.

B16-F0 melanoma = assay: Calcein AM cytotoxicity, B16-F0; type: cell-based; settings: Mus musculus, B16F0, 72 h, read-out: IC 50, B16-F0
Description: as §1
(§4) Human T-lymphoblastic leukemia cell line CEM; promyelocytic HL-60 and monocytic U937 leukemias; breast carcinoma cell lines MCF-7, BT549, MDA-MB-231; glioblastoma U87MG cells; cervical carcinoma cells HELA; sarcoma cells U2OS and Saos2; hepatocellular carcinoma HepG2; mouse fibroblasts NIH3T3; mouse immortalized bone marrow macrophages B2.4 and B10A.4; P388D1 and L1210 leukemia; B16 and B16F10 melanomas were used for routine screening of compounds. The cells were maintained in Nunc/Corning 80 cm^2 plastic tissue culture flasks and cultured in cell culture medium (DMEM with 5 g/l glucose, 2 mM glutamine, 100 U/ml penicillin, 100 μg/ml streptomycin, 10% fetal calf serum and sodium bicarbonate).
(§5) The cell suspensions that were prepared and diluted according to the particular cell type and the expected target cell density (2.500-30.000 cells per well based on cell growth characteristics) were added by pipette (80 μl) into 96/well microtiter plates. Inoculates were allowed a pre-incubation period of 24 hours at 37° C. and 5% CO2 for stabilisation. Four-fold dilutions of the intended test concentration were added at time zero in 20 μl aliquots to the microtiter plate wells. Usually, test compound was evaluated at six 4-fold dilutions. In routine testing, the highest well concentration was […], but it can be the matter of change dependent on the agent. All drug concentrations were examined in duplicates. Incubations of cells with the test compounds lasted for 72 hours at 37° C., in 5% CO2 atmosphere and 100% humidity. At the end of incubation period, the cells were assayed by using the Calcein AM. Ten microliters of the stock solution were pipetted into each well and incubated further for 1 hours. Fluorescence (FD) was measured with the Labsystem FIA Reader Fluoroscan Ascent (UK). The tumour cell survival (GI50) was calculated using the following equitation: TCS═(FDdrug exposed well/mean FDcontrol wells)×100%. The GI50 value, the drug concentration lethal to 50% of the tumour cells, was calculated from the obtained dose response curves (FIG. 1).

[5] = test system: Triticum aestivum cv. Hereward leaf tips; assay: Retention of chlorophyll in excised wheat leaf tips; type: in vivo; settings: chlorophyll retention at the concentration with highest activity
Description: Seeds of winter wheat, Triticum aestivum cv. Hereward, were washed under running water for 24 hours and then sown on vermiculite soaked with Knop's solution. They were placed in the grown chamber at 25° C. with a 16/8 h light period at 50 μmol.m^−2.s^−1. After 7 days, the first leaf was fully developed and the second leaf had started to grow. A tip section of the first leaf, approximately 35 mm long, was removed from 5 seedlings and trimmed slightly to a combined weight of 100 mg. The basal ends of the five leaf tips were placed in the wells of a microtiter polystyrene plate containing 150 μl of a cytokinin solution each. The entire plate was inserted into a plastic box lined with paper tissues soaked in distilled water to prevent leaf sections from drying out. After a 96 h incubation in the dark at 25° C., the leaves were removed and chlorophyll extracted by heating at 80° C. for 10 min in 5 ml of 80% ethanol (v/v). The sample volume was then restored to 5 ml by the addition of 80% ethanol (v/v). The absorbency of the extract was recorded at 665 nm. In addition, chlorophyll extracts from fresh leaves and leaf tips incubated in deionised water were measured. From the obtained data, the concentration with highest activity was selected for each compound tested. Relative activity of the compound at this concentration was calculated (Tab. 6). The activity obtained for 10^−4 M 6-benzylaminopurine (BAP) was postulated as 100%. The values shown are means of five replicates and the whole experiment was repeated twice. The cytokinins to be tested were dissolved in dimethylsulfoxide (DMSO) and the solution brought up to 10^−3M with distilled water. This stock was further diluted in distilled water to concentrations ranging from 10^−8M to 10^−4M.

[6] = test system: promyelocytic HL-60 leukemia; assay: Calcein AM cytotoxicity, HL60; type: cell-based, human; settings: read-out: IC 50, HL60
Description: as §1, §2, §3

[7] = test system: human diploid fibroblasts (HCA cells); assay: Senescence, beta-galactosidase staining of human diploid fibroblasts; type: cell-based
Description: In this example, human diploid fibroblasts (HCA cells of various passage levels: passage 25—designated HCA25; passage 45—designated HCA45; passage 80—designated HCA80) were stained for β-galactosidase activity. The medium used for cell cultivation was removed, the cells were washed twice in […], and fixed in 2-3 ml of fixing solution comprised of a 2% formaldehyde and 0.2% glutaraldehyde in PBS. The cells were incubated at room temperature for 5 minutes, then washed twice with PBS. The cells were subsequently incubated at 37° C. (without CO2) for 1 to 16 hours in 2-3 ml of a solution comprising potassium ferricyanide (5 mM), potassium ferrocyanide (5 mM), MgCl2 (2 mM), X-gal (5-bromo-4-chloro-3-indolyl-β-D-galactopyranoside) (1 mg/ml), in citric/phosphate buffer, pH 6.0). […] In this experiment, senescent cells, but not other cells were stained blue due to the action of β-galactosidase on the substrate (FIG. 4).

HOS = assay: Calcein AM cytotoxicity, HOS; type: cell-based
Description: as §1, §4, §5

Compound	pIC50 ([1]; Homo sapiens, 72 h)	pIC50 ([2]; Homo sapiens, MCF7, 72 h)	pIC50 (K-562; Homo sapiens, K562, 72 h)	activity (%) [10^−5 mol · l^−1 BAP = 100%] [3]	Activity (%) [10^−4 mol · l^−1 BAP = 100%] [4]	pIC50 (B16-F0 melanoma)	Activity (%) [10^−4 mol · l^−1 BAP = 100%] [5]	pIC50 ([6]; Homo sapiens, HL-60, 72 h)	further results
COc1cc(OC)c(CNc2ncnc3nc[nH]c23)c(OC)c1 [6-(2,4,6-trimethoxybenzylamino)purine]	4.20	< 3.78	< 3.78	3 (±3) %	13 (±6) %	< 3.78	6 (±4) %	3.81	pIC50 ([1]; 72 hours, listed as 2,4,6triMeO BAP): 3.98
Clc1ccccc1CNc1ncnc2nc[nH]c12 [6-(2-chlorobenzylamino)purine]	–	–	–	109 (±8) %	93 (±4) %	4.77	116.5 (±6.5) %	–	–
Oc1ccc(CNc2ncnc3nc[nH]c23)cc1O [6-(3,4-dihydroxybenzylamino)purine]	< 3.78	< 3.78	< 3.78	8 (±3) %	4 (±1) %	< 3.78	–	< 3.78	SENESCENT CELLS (%) HCA25 ([7]; passage 25): 5%; SENESCENT CELLS (%) HCA45 ([7]; passage 45): 4%; SENESCENT CELLS (%) HCA80 ([7]; passage 80): 29%
Clc1cccc(CNc2ncnc3nc[nH]c23)c1 [6-(3-chlorobenzylamino)purine]	–	–	< 3.78	96 (±5) %	94 (±6) %	–	82 (±2) %	–	pIC50 (HOS; Homo sapiens, HOS, 72 h): < 3.78
COc1ccc(CNc2ncnc3nc[nH]c23)cc1O [6-(3-hydroxy-4-methoxybenzylamino)purine]	< 3.78	< 3.78	< 3.78	24 (±1) %	–	< 3.78	–	< 3.78	–
Clc1ccc(CNc2ncnc3nc[nH]c23)cc1 [6-(4-chlorobenzylamino)purine]	< 3.78	< 3.78	< 3.78	35 (±7) %	64 (±8) %	–	64.5 (±13.5) %	< 3.78	pIC50 (HOS; Homo sapiens, HOS, 72 h): < 3.78
COc1cc(CNc2ncnc3nc[nH]c23)ccc1O [6-(4-hydroxy-3-methoxybenzylamino)purine]	< 3.78	< 3.78	< 3.78	10 (±2) %	–	< 3.78	–	< 3.78	–
O=[N+]([O-])c1ccc(CNc2ncnc3nc[nH]c23)cc1 [6-(4-nitrobenzylamino)purine]	< 3.78	< 3.78	< 3.78	25 (±2) %	–	< 3.78	83 (±8) %	< 3.78	–
CC(C)=CCNc1ncnc2nc[nH]c12 [IP, isopentenyladenine, reference compound]	–	–	–	–	–	–	–	–	pIC50 ([1]; 72 hours): 4.04; pIC50 ([2]; 72 hours): < 3.78; pIC50 (K-562; 72 hours): 3.83 and 3.79; pIC50 (HOS; 72 hours): < 3.78; pIC50 ([6]; 72 hours): < 3.78
c1coc(CNc2ncnc3[nH]cnc23)c1 [Kinetin, reference compound]	–	< 3.78	< 3.78	–	–	–	–	–	pIC50 ([1]; Homo sapiens, 72 hours): 3.81; pIC50 (K-562; Homo sapiens, K562, 72 hours): 3.78; pIC50 (HOS; Homo sapiens, HOS, 72 h): < 3.78
C/C(=C/CNc1ncnc2nc[nH]c12)CO [cis Z, reference compound]	–	–	–	–	–	–	–	–	pIC50 ([1]; 72 hours): < 3.78; pIC50 ([2]; 72 hours): < 3.78; pIC50 (HOS; 72 hours): < 3.78; pIC50 ([6]; 72 hours): < 3.78
